These compounds were tested against human HPK1 (MAP4K1) (Homo sapiens (Human), UniProt Q92918) (assay: HPK1 IC50 Assay (TR-FRET peptide phosphorylation)). Details: 0.15 nM HPK1, 10 μM ATP, 1 μM STK S1 peptide substrate; geometric mean.
Chain of human HPK1 (MAP4K1) (Q92918 17-274): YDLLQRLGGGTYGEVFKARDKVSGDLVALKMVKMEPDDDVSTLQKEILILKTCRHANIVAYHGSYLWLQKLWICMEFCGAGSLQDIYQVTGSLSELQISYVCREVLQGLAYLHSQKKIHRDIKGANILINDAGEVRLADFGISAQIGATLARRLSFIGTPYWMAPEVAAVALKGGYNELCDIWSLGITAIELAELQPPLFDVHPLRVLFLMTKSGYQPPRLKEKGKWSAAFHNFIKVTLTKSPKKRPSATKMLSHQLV
Format: biochemical
Procedure, shortened: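 Readout: TR-FRET (665 nm/620 nm) after EDTA stop, detecting STK S1 peptide (1 μM) phosphorylation by 0.15 nM HPK1 kinase domain, ATP-pre-activated, at 10 μM ATP over 3 h, 25° C, pH 7.0. IC50s from four-parameter variable-slope fits, normalized to staurosporine and DMSO, averaged geometrically.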
Compound CC(C)n1cnc2cc(-c3cc4c(nc3F)C(C)(C)C(=O)N4[C@H]3C[C@@](C)(N4CCCCC4)C3)nc(Nc3cc(C(=O)NCC(F)F)c(Cl)c(F)c3F)c21 [Example 272, 2-chloro-N-(2,2-difluoroethyl)-3,4-difluoro-5-((6-(5-fluoro-3,3-dimethyl-1-((1s,3s)-3-methyl-3-(piperidin-1-yl)cyclobutyl)-2-oxo-2,3-dihydro-1H-pyrrolo[3,2-b]pyridin-6-yl)-3-isopropyl-3H-imidazo[4,5-c]pyridin-4-yl)amino)benzamide] has an IC50 of 0.09 nM.
Compound CCNC(=O)c1cc(Nc2nc(-c3cc4c(nc3F)C(C)(C)C(=O)N4[C@H]3C[C@@](C)(N4CCCCC4)C3)cc3ncn(C(C)C)c23)c(F)c(F)c1Cl [Example 273, 2-chloro-N-ethyl-3,4-difluoro-5-((6-(5-fluoro-3,3-dimethyl-1-((1s,3s)-3-methyl-3-(piperidin-1-yl)cyclobutyl)-2-oxo-2,3-dihydro-1H-pyrrolo[3,2-b]pyridin-6-yl)-3-isopropyl-3H-imidazo[4,5-c]pyridin-4-yl)amino)benzamide] has an IC50 of 0.07 nM.
For CC(C)n1cnc2cc(-c3cnc4c(c3)N([C@H]3C[C@@](C)(N5CCCCC5)C3)C(=O)C4(C)C)nc(Nc3cc(C(=O)NCC(F)F)c(F)c(F)c3F)c21 [Example 274, N-(2,2-difluoroethyl)-5-((6-(3,3-dimethyl-1-((1s,3s)-3-methyl-3-(piperidin-1-yl)cyclobutyl)-2-oxo-2,3-dihydro-1H-pyrrolo[3,2-b]pyridin-6-yl)-3-isopropyl-3H-imidazo[4,5-c]pyridin-4-yl)amino)-2,3,4-trifluorobenzamide], the IC50 was 0.04 nM.
CC(C)n1cnc2cc(-c3ccc4c(c3)N([C@H]3C[C@@](C)(N5CCCCC5)C3)C(=O)C43CC3)nc(Nc3cc(C(=O)NCC(F)F)c(Cl)c(F)c3F)c21 [Example 275, 2-chloro-N-(2,2-difluoroethyl)-3,4-difluoro-5-((3-isopropyl-6-(1′-((1s,3s)-3-methyl-3-(piperidin-1-yl)cyclobutyl)-2′-oxospiro[cyclopropane-1,3′-indolin]-6′-yl)-3H-imidazo[4,5-c]pyridin-4-yl)amino)benzamide] showed an IC50 of 0.06 nM.
CCNC(=O)c1cc(Nc2nc(-c3ccc4c(c3)N([C@H]3C[C@@](C)(N5CCCCC5)C3)C(=O)C4(C)C)cc3ncn(C(C)C)c23)c(F)cc1C [Example 276, 5-((6-(3,3-dimethyl-1-((1s,3s)-3-methyl-3-(piperidin-1-yl)cyclobutyl)-2-oxoindolin-6-yl)-3-isopropyl-3H-imidazo[4,5-c]pyridin-4-yl)amino)-N-ethyl-4-fluoro-2-methylbenzamide] gave an IC50 of 0.06 nM.
Cc1c(C(=O)NCC(F)F)cc(Nc2nc(-c3cc4c(nc3F)C(C)(C)C(=O)N4[C@H]3C[C@@](C)(N4CCCC5(CC5)C4)C3)cc3ncn(C(C)C)c23)c(F)c1F [Example 277, N-(2,2-difluoroethyl)-3,4-difluoro-5-((6-(5-fluoro-3,3-dimethyl-1-((1s,3s)-3-methyl-3-(5-azaspiro[2.5]octan-5-yl)cyclobutyl)-2-oxo-2,3-dihydro-1H-pyrrolo[3,2-b]pyridin-6-yl)-3-isopropyl-3H-imidazo[4,5-c]pyridin-4-yl)amino)-2-methylbenzamide] was tested, and the IC50 was 0.07 nM.
CCNC(=O)c1cc(Nc2nc(-c3cnc4c(c3)N([C@H]3C[C@@](C)(N5CCCCC5)C3)C(=O)C4(C)C)cc3ncn(C(C)C)c23)c(F)c(F)c1F [Example 278, 5-((6-(3,3-dimethyl-1-((1s,3s)-3-methyl-3-(piperidin-1-yl)cyclobutyl)-2-oxo-2,3-dihydro-1H-pyrrolo[3,2-b]pyridin-6-yl)-3-isopropyl-3H-imidazo[4,5-c]pyridin-4-yl)amino)-N-ethyl-2,3,4-trifluorobenzamide] gave an IC50 of 0.2 nM.
CCNC(=O)c1cc(Nc2nc(-c3cc4c(nc3F)C(C)(C)C(=O)N4[C@H]3C[C@@](C)(N4CCCC5(CC5)C4)C3)cc3ncn(C(C)C)c23)c(F)c(F)c1C [Example 279, N-ethyl-3,4-difluoro-5-((6-(5-fluoro-3,3-dimethyl-1-((1s,3s)-3-methyl-3-(5-azaspiro[2.5]octan-5-yl)cyclobutyl)-2-oxo-2,3-dihydro-1H-pyrrolo[3,2-b]pyridin-6-yl)-3-isopropyl-3H-imidazo[4,5-c]pyridin-4-yl)amino)-2-methylbenzamide] gave an IC50 of 0.1 nM.
For CNC(=O)c1cc(Nc2nc(-c3cnc4c(c3)N([C@H]3C[C@@](C)(N5CCCCC5)C3)C(=O)C4(C)C)cc3ncn(C(C)C)c23)c(F)c(F)c1Cl [Example 281, 2-chloro-5-((6-(3,3-dimethyl-1-((1s,3s)-3-methyl-3-(piperidin-1-yl)cyclobutyl)-2-oxo-2,3-dihydro-1H-pyrrolo[3,2-b]pyridin-6-yl)-3-isopropyl-3H-imidazo[4,5-c]pyridin-4-yl)amino)-3,4-difluoro-N-methylbenzamide], the IC50 was 0.07 nM.
CC(C)n1cnc2cc(-c3cnc4c(c3)N([C@H]3C[C@@](C)(N5CCCC6(CC6)C5)C3)C(=O)C4(C)C)nc(Nc3cc(C(=O)NCC(F)F)c(Cl)c(F)c3F)c21 [Example 282, 2-chloro-N-(2,2-difluoroethyl)-5-((6-(3,3-dimethyl-1-((1s,3s)-3-methyl-3-(5-azaspiro[2.5]octan-5-yl)cyclobutyl)-2-oxo-2,3-dihydro-1H-pyrrolo[3,2-b]pyridin-6-yl)-3-isopropyl-3H-imidazo[4,5-c]pyridin-4-yl)amino)-3,4-difluorobenzamide] showed an IC50 of 0.1 nM.
CCNC(=O)c1cc(Nc2nc(-c3cnc4c(c3)N([C@H]3C[C@@](C)(N5CCCC6(CC6)C5)C3)C(=O)C4(C)C)cc3ncn(C(C)C)c23)c(F)c(F)c1Cl [Example 283, 2-chloro-5-((6-(3,3-dimethyl-1-((1s,3s)-3-methyl-3-(5-azaspiro[2.5]octan-5-yl)cyclobutyl)-2-oxo-2,3-dihydro-1H-pyrrolo[3,2-b]pyridin-6-yl)-3-isopropyl-3H-imidazo[4,5-c]pyridin-4-yl)amino)-N-ethyl-3,4-difluorobenzamide] was tested, and the IC50 was 0.09 nM.
For Cc1c(C(=O)NCC(F)F)cc(Nc2nc(-c3cnc4c(c3)N([C@H]3C[C@@](C)(N5CCCC6(CC6)C5)C3)C(=O)C4(C)C)cc3ncn(C(C)C)c23)c(F)c1F [Example 284, N-(2,2-difluoroethyl)-5-((6-(3,3-dimethyl-1-((1s,3s)-3-methyl-3-(5-azaspiro[2.5]octan-5-yl)cyclobutyl)-2-oxo-2,3-dihydro-1H-pyrrolo[3,2-b]pyridin-6-yl)-3-isopropyl-3H-imidazo[4,5-c]pyridin-4-yl)amino)-3,4-difluoro-2-methylbenzamide], the IC50 was 0.1 nM.
In the case of CCNC(=O)c1cc(Nc2nc(-c3cnc4c(c3)N([C@H]3C[C@@](C)(N5CCCC6(CC6)C5)C3)C(=O)C4(C)C)cc3ncn(C(C)C)c23)c(F)c(F)c1C [Example 285, 5-((6-(3,3-dimethyl-1-((1s,3s)-3-methyl-3-(5-azaspiro[2.5]octan-5-yl)cyclobutyl)-2-oxo-2,3-dihydro-1H-pyrrolo[3,2-b]pyridin-6-yl)-3-isopropyl-3H-imidazo[4,5-c]pyridin-4-yl)amino)-N-ethyl-3,4-difluoro-2-methylbenzamide], the IC50 is reported as 0.1 nM.
CCNC(=O)c1cc(Nc2nc(-c3cnc4c(c3)N([C@H]3C[C@@](C)(N5CCCCC5)C3)C(=O)C4(C)C)cc3ncn(C(C)C)c23)c(F)c(F)c1Cl [Example 286, 2-chloro-5-((6-(3,3-dimethyl-1-((1s,3s)-3-methyl-3-(piperidin-1-yl)cyclobutyl)-2-oxo-2,3-dihydro-1H-pyrrolo[3,2-b]pyridin-6-yl)-3-isopropyl-3H-imidazo[4,5-c]pyridin-4-yl)amino)-N-ethyl-3,4-difluorobenzamide] gave an IC50 of 0.1 nM.
CC(C)n1cnc2cc(-c3ccc4c(c3)N([C@H]3C[C@@](C)(N5CCCCC5)C3)C(=O)C4(C)C)nc(Nc3cc(C(=O)NCC(F)F)c(Cl)c(F)c3F)c21 [Example 287, 2-chloro-N-(2,2-difluoroethyl)-5-((6-(3,3-dimethyl-1-((1s,3s)-3-methyl-3-(piperidin-1-yl)cyclobutyl)-2-oxoindolin-6-yl)-3-isopropyl-3H-imidazo[4,5-c]pyridin-4-yl)amino)-3,4-difluorobenzamide] was tested, and the IC50 was 0.08 nM.
CCNC(=O)c1cc(Nc2nc(-c3ccc4c(c3)N([C@H]3C[C@@](C)(N5CCCCC5)C3)C(=O)C4(C)C)cc3ncn(C(C)C)c23)c(F)c(F)c1Cl [Example 288, 2-chloro-5-((6-(3,3-dimethyl-1-((1s,3s)-3-methyl-3-(piperidin-1-yl)cyclobutyl)-2-oxoindolin-6-yl)-3-isopropyl-3H-imidazo[4,5-c]pyridin-4-yl)amino)-N-ethyl-3,4-difluorobenzamide] gave an IC50 of 0.08 nM.
With CC(C)n1cnc2cc(-c3ccc4c(c3)N([C@H]3C[C@@](C)(N5CCCCC5)C3)C(=O)C4(C)C)nc(Nc3cc(C(=O)NCC(F)F)c(Cl)cc3F)c21 [Example 289, 2-chloro-N-(2,2-difluoroethyl)-5-((6-(3,3-dimethyl-1-((1s,3s)-3-methyl-3-(piperidin-1-yl)cyclobutyl)-2-oxoindolin-6-yl)-3-isopropyl-3H-imidazo[4,5-c]pyridin-4-yl)amino)-4-fluorobenzamide] the IC50 was 0.07 nM.
In the case of CCNC(=O)c1cc(Nc2nc(-c3ccc4c(c3)N([C@H]3C[C@@](C)(N5CCCCC5)C3)C(=O)C4(C)C)cc3ncn(C(C)C)c23)c(F)cc1Cl [Example 290, 2-chloro-5-((6-(3,3-dimethyl-1-((1s,3s)-3-methyl-3-(piperidin-1-yl)cyclobutyl)-2-oxoindolin-6-yl)-3-isopropyl-3H-imidazo[4,5-c]pyridin-4-yl)amino)-N-ethyl-4-fluorobenzamide], the IC50 is reported as 0.07 nM.
In the case of CC(C)n1cnc2cc(-c3cc4c(nc3F)C(C)(C)C(=O)N4[C@H]3C[C@@](C)(N4CCCCC4)C3)nc(Nc3cc(C(=O)NC4(C(F)F)CC4)c(Cl)c(F)c3F)c21 [Example 291, 2-chloro-N-(1-(difluoromethyl)cyclopropyl)-3,4-difluoro-5-((6-(5-fluoro-3,3-dimethyl-1-((1s,3s)-3-methyl-3-(piperidin-1-yl)cyclobutyl)-2-oxo-2,3-dihydro-1H-pyrrolo[3,2-b]pyridin-6-yl)-3-isopropyl-3H-imidazo[4,5-c]pyridin-4-yl)amino)benzamide], the IC50 is reported as 0.08 nM.

Reference: US11203591B2, “Substituted 6-azabenzimidazole compounds” (Gilead Sciences, Inc., priority 2018, dated 2021)
